Assay results reported in patent publication US12622899B2 (PureTech LYT 100, Inc., priority 2018, dated 2026).

Experiments:
[1] = molecular target: T1, CYP2D6 (Homo sapiens, UniProt P10635); assay: In vitro stability with recombinant human CYP2D6; type: in vitro ADME; settings: recombinant human isozyme; read-out: t1/2 following incubation with CYP2D6 (converted)
T1 construct: host or cells: heterologous cell systems (not specified)
Protocol: (§1) The half-life (t½) of each test article was determined.

[2] = tested on: patients with Idiopathic Pulmonary Fibrosis (IPF); assay: IPF trial Part A: clinical laboratory parameters, liver; type: in vivo, human
[3] = tested on: older, healthy subjects; assay: Crossover study Part 2: safety and tolerability (TEAEs), fed and fasted; type: in vivo, human
From the text: Over-encapsulation was utilized to maintain study blind. […] Approximately 50 older healthy female and male adult subjects (1:1 ratio) were randomized into 1 of 2 cohorts:Cohort 1 or Cohort 2, N=˜25 subjects per cohort. Subjects in each cohort were randomized to treatment sequence as follows: • Sequence A: Pirfenidone to LYT-100 • Sequence B: LYT-100 to pirfenidone

[4] = tested on: patients with Idiopathic Pulmonary Fibrosis (IPF); assay: IPF trial Part B (open label long-term extension): efficacy, safety, TEAEs; type: in vivo, human
From the text: Part B (long-term extension) will evaluate the tolerability and long-term safety of LYT-100 in patients who complete the Double-blind Treatment Period. Part B has two periods. […] Patients completing Part B Period 1 will continue maintenance treatment in Part B Period 2 until the study ends. Part B Period 2 will continue at least until all patients who enter Part B Period 1 have the opportunity to complete Part B Period 1. Tolerability and safety during both Part B Period 1 and Part B Period 2 will be monitored by regularly scheduled review of adverse events (AEs), patient reported symptoms, concomitant medications, clinical laboratory findings, physical examinations, electrocardiograms (ECGs), and vital signs. Efficacy will be assessed by evaluation of pulmonary function and monitored by spirometry at regularly scheduled clinic visits. A graphical illustration of an embodiment of the trial design is provided as FIG. 24C.
At the start of Part B, all patients received LYT-100 oral tablets. Patients were titrated onto their assigned doses.
The proportion of patients with prior exposure to nintedanib was limited to 50%.
One hundred and seventy (170) patients (greater than 90%) enrolled in the Open Label Extension (Part B) of the study.

[5] = tested on: healthy older adults; assay: Study LYT-100-2021-103 Part 3 (Example 2): safety and tolerability vs placebo; settings: for Abdominal Pain/Discomfort/Distension, adverse events / Diarrhea, adverse events / Dizziness, adverse events / Dyspepsia, adverse events / GI Disorders, adverse events / Headache, adverse events / Nausea, adverse events / Nervous System Disorders, adverse events / Vomiting, adverse events: fed, N=13
Protocol: Only subjects who met all the applicable inclusion and none of the applicable exclusion criteria were randomized.
Safety and tolerability were assessed by monitoring AEs, physical examination, vital signs, 12-lead ECGs, clinical laboratory values (hematology panel, multiphasic chemistry panel and urinalysis), and review of concomitant treatments/medication use.

[6] = molecular target: T2, CYP1A2 (Homo sapiens, UniProt P05177); assay: In vitro stability with recombinant human CYP1A2; type: in vitro ADME; settings: recombinant human isozyme; read-out: t1/2 following incubation with CYP1A2 (converted)
T2 construct: host or cells: heterologous cell systems (not specified)
T2 sequence (P05177 1-516): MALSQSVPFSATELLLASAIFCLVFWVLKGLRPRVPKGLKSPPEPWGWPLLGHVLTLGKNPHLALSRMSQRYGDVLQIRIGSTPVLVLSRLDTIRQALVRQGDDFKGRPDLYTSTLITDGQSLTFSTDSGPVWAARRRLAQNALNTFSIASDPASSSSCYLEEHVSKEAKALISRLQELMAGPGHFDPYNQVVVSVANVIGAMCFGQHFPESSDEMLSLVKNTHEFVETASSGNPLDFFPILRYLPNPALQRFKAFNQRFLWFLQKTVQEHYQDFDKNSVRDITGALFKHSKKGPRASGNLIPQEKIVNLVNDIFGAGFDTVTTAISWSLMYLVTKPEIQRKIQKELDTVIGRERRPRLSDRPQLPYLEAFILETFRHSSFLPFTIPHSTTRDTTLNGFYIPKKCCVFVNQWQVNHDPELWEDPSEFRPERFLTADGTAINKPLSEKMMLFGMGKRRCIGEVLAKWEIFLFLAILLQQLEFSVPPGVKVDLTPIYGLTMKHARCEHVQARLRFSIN
Protocol: as §1

[7] = Part A LYT-100 → Part B LYT-100 (N = 81)
[8] = Part A Pirfenidone → Part B LYT-100 (N = 39)
[9] = Part A Placebo → Part B LYT-100 (N = 50)
[10] = Part 3 safety population, LYT-100 550 mg TID Days 1-3 then 824 mg TID Days 4-6, N=24

T1 sequence (P10635 whole entry): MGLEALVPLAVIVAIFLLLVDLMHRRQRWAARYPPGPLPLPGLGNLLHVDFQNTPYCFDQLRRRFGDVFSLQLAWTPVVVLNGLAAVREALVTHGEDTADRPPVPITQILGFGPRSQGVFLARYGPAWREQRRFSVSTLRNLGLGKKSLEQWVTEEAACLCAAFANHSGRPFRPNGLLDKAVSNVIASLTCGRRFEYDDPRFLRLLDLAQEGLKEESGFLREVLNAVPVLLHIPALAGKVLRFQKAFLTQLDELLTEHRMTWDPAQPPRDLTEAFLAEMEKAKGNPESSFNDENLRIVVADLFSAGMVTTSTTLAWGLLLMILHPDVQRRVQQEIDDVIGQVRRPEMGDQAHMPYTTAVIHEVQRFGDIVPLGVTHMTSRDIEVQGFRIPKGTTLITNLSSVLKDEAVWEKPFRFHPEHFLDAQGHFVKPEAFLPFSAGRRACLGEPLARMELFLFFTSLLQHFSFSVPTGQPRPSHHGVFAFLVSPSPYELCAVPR

SMILES: [2H]C([2H])([2H])c1ccc(=O)n(-c2ccccc2)c1 [LYT-100, 5-(methyl-d3)-1-phenylpyridin-2-(1H)-one]
- half-life [1]: 2.72 h
- liver enzyme elevations, drug-induced liver injury ([2]; IPF Part A): no instances of drug-induced liver injury or Hy's Law
- Alanine Aminotransferase (U/L) at Worst Post-Baseline, 3-5 ULN ([2]; TID Pooled (N = 129), N1 120): 2 (1.7) n (%)
- Alanine Aminotransferase (U/L) at Worst Post-Baseline, 5-8 ULN ([2]; TID Pooled (N = 129), N1 120): 1 n (%)
- Alanine Aminotransferase (U/L) at Worst Post-Baseline, >8 ULN ([2]; TID Pooled (N = 129), N1 120): 2 n (%)
- Alanine Aminotransferase (U/L) at Worst Post-Baseline, Total (>3 ULN) ([2]; TID Pooled (N = 129), N1 120): 5 (4.2) n (%)
- Alanine Aminotransferase or Aspartate Aminotransferase (U/L) at Worst Post-Baseline, 3-5 ULN ([2]; TID Pooled (N = 129), N1 120): 2 (1.7) n (%)
- Alanine Aminotransferase or Aspartate Aminotransferase (U/L) at Worst Post-Baseline, 5-8 ULN ([2]; TID Pooled (N = 129), N1 120): 1 n (%)
- Alanine Aminotransferase or Aspartate Aminotransferase (U/L) at Worst Post-Baseline, >8 ULN ([2]; TID Pooled (N = 129), N1 120): 2 n (%)
- Alanine Aminotransferase or Aspartate Aminotransferase (U/L) at Worst Post-Baseline, Total (>3 ULN) ([2]; TID Pooled (N = 129), N1 120): 5 (4.2) n (%)
- Aspartate Aminotransferase (U/L) at Worst Post-Baseline, 3-5 ULN ([2]; TID Pooled (N = 129), N1 120): 2 (1.7) n (%)
- Aspartate Aminotransferase (U/L) at Worst Post-Baseline, 5-8 ULN ([2]; TID Pooled (N = 129), N1 120): 0 n (%)
- Aspartate Aminotransferase (U/L) at Worst Post-Baseline, >8 ULN ([2]; TID Pooled (N = 129), N1 120): 2 n (%)
- Aspartate Aminotransferase (U/L) at Worst Post-Baseline, Total (>3 ULN) ([2]; TID Pooled (N = 129), N1 120): 4 (3.3) n (%)
- deaths or serious AEs ([3]; Part 2): No deaths or serious AEs
- TEAEs leading to study discontinuation, subjects ([3]; in vivo): one
- response in Open Label Extension ([4]; IPF Part B, ongoing, LYT-100 825 mg TID (FIG. 49)): durable response
- TEAE Abdominal Pain [4, 7]: 2 (2.5) n (%)
- TEAE Diarrhea [4, 7]: 2 (2.5) n (%)
- TEAE Dyspepsia [4, 7]: 7 (8.6) n (%)
- TEAE Nausea [4, 7]: 5 (6.2) n (%)
- TEAE SOC Gastrointestinal disorders [4, 7]: 17 (21.0) n (%)
- TEAE Vomiting [4, 7]: 2 (2.5) n (%)
- TEAE Abdominal Pain [4, 8]: 1 (2.6) n (%)
- TEAE Diarrhea [4, 8]: 1 (2.6) n (%)
- TEAE Dyspepsia [4, 8]: 0 n (%)
- TEAE Nausea [4, 8]: 2 (5.1) n (%)
- TEAE SOC Gastrointestinal disorders [4, 8]: 5 (12.8) n (%)
- TEAE Vomiting [4, 8]: 0 n (%)
- TEAE Abdominal Pain [4, 9]: 2 (4.0) n (%)
- TEAE Diarrhea [4, 9]: 2 (4.0) n (%)
- TEAE Dyspepsia [4, 9]: 7 (14.0) n (%)
- TEAE Nausea [4, 9]: 7 (14.0) n (%)
- TEAE SOC Gastrointestinal disorders [4, 9]: 18 (36.0) n (%)
- TEAE Vomiting [4, 9]: 3 (6.0) n (%)
- TEAE Abdominal Pain ([4]; Part B Subtotal (N = 170)): 5 (2.9) n (%)
- TEAE Diarrhea ([4]; Part B Subtotal (N = 170)): 5 (2.9) n (%)
- TEAE Dyspepsia ([4]; Part B Subtotal (N = 170)): 14 (8.2) n (%)
- TEAE Nausea ([4]; Part B Subtotal (N = 170)): 14 (8.2) n (%)
- TEAE SOC Gastrointestinal disorders ([4]; Part B Subtotal (N = 170)): 40 (23.5) n (%)
- TEAE Vomiting ([4]; Part B Subtotal (N = 170)): 5 (2.9) n (%)
- deaths or SAEs ([5]; Part 3): No deaths or SAEs
- Abdominal Pain/Discomfort/Distension, adverse events ([5]; Part 3, LYT-100 550 mg TID): 0 n (%)
- Diarrhea, adverse events ([5]; Part 3, LYT-100 550 mg TID): 1 (4.2) n (%)
- Dizziness, adverse events ([5]; Part 3, LYT-100 550 mg TID): 1 (4.2) n (%)
- Dyspepsia, adverse events ([5]; Part 3, LYT-100 550 mg TID): 1 (4.2) n (%)
- GI Disorders, adverse events ([5]; Part 3, LYT-100 550 mg TID): 2 (8.3) n (%)
- Headache, adverse events ([5]; Part 3, LYT-100 550 mg TID): 3 (12.5) n (%)
- Nausea, adverse events ([5]; Part 3, LYT-100 550 mg TID): 0 n (%)
- Nervous System Disorders, adverse events ([5]; Part 3, LYT-100 550 mg TID): 3 (12.5) n (%)
- Vomiting, adverse events ([5]; Part 3, LYT-100 550 mg TID): 0 n (%)
- tolerability ([5]; Part 3, LYT-100 824 mg TID, 3 treatment days): well tolerated
- Abdominal Pain/Discomfort/Distension, adverse events ([5]; Part 3, LYT-100 824 mg TID): 0 n (%)
- Diarrhea, adverse events ([5]; Part 3, LYT-100 824 mg TID): 0 n (%)
- Dizziness, adverse events ([5]; Part 3, LYT-100 824 mg TID): 0 n (%)
- Dyspepsia, adverse events ([5]; Part 3, LYT-100 824 mg TID): 0 n (%)
- GI Disorders, adverse events ([5]; Part 3, LYT-100 824 mg TID): 0 n (%)
- Headache, adverse events ([5]; Part 3, LYT-100 824 mg TID): 0 n (%)
- Nausea, adverse events ([5]; Part 3, LYT-100 824 mg TID): 0 n (%)
- Nervous System Disorders, adverse events ([5]; Part 3, LYT-100 824 mg TID): 0 n (%)
- Vomiting, adverse events ([5]; Part 3, LYT-100 824 mg TID): 0 n (%)
- subjects discontinued due to a TEAE (all Covid-19) ([5]; Part 3, LYT-100 group N=24): 3 (12.5%) n (%)
- subjects with at least one TEAE ([5]; Part 3, LYT-100 group N=24): 8 (33.3%) n (%)
- subjects with mild TEAEs ([5]; Part 3, LYT-100 group N=24): 7 (29.2%) n (%)
- COVID-19 TEAE [5, 10]: 4 (16.7) n (%)
- Headache TEAE [5, 10]: 3 (12.5) n (%)
- half-life [6]: 9.08 h
